# Experimental data reported in US11072634B2, “Inhibitors of transglutaminases” (Zedira GmbH, priority 2016, dated 2021).
# Biological target: T1, recombinant human tissue transglutaminase (rhTG2) (Homo sapiens, UniProt P21980)
# T1 construct: purchased Zedira 1022 (so in the source); T022)
# T1 sequence (P21980 1-687): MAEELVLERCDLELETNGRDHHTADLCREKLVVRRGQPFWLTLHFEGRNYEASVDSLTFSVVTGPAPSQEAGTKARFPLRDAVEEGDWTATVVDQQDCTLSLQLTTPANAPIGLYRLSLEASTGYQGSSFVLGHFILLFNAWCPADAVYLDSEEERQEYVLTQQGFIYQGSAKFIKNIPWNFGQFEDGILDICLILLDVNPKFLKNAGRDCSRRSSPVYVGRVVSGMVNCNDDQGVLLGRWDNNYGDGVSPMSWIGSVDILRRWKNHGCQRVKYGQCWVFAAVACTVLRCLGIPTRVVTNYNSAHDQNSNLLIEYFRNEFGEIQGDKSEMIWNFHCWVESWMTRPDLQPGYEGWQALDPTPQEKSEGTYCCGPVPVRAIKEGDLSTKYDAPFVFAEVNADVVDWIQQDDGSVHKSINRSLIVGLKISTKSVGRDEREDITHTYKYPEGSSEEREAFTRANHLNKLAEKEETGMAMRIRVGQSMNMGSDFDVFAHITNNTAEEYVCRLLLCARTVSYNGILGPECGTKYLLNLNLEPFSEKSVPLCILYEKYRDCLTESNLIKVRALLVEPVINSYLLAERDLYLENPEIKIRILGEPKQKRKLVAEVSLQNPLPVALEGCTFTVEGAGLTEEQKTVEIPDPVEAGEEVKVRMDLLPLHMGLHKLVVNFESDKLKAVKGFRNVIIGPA
# Assay: Inhibition of rec. human tissue transglutaminase (fluorescence, Abz-APE(CAD-DNP)QEA-OH)
# Format: biochemical
# Settings: Table 2, TG2 inhibitors
# Protocol: Method for Inhibition Studies of Rec. Human Tissue Transglutaminase (rhTG2)
# 250 μg lyophilized His-tagged recombinant human tissue transglutaminase (His6-rhTG2, Zedira product 1022) is reconstituted in H2O (volume depends on original volume before lyophilization) resulting in a buffer containing 10 mM Tris-HCl, 150 mM NaCl, 1 mM EDTA, 5 mM DTT, 189 mg/ml maltodextrin, pH=8.1. The rhTG2 stock solution is diluted in buffer (50 mM Tris-HCl, 7.5 mM CaCl2, 150 mM NaCl, pH=7.4) to give a working solution of 100 U/ml (based on the amine-incorporation activity measured using T036, described below).
# A 10 mM inhibitor stock solution is prepared in DMSO, and from this stock solution a serial 1:2-fold dilution series is prepared, also in DMSO. Each of these initial dilutions is subsequently diluted 1:50-fold with buffer (50 mM Tris-HCl, 7.5 mM CaCl2, 150 mM NaCl, pH=7.4) to yield the final working dilutions containing 2% (v/v) DMSO. 15 μl of inhibitor working dilution are added per well of a 96 well microtiter plate. As control, 15 μl of a 2% (v/v) DMSO solution prepared using the buffer mentioned above are added per well.
# 600 μl of His6-rhTG2 working solution are added to 11.4 ml assay buffer (50 mM Iris-HCl, 7.5 mM CaCl2, 150 mM NaCl, 5 mM DTI, 13.4 mM glycine methylester, 50 μM Abz-APE(CAD-DNP)QEA-OH, (Zedira product A102; patent No.: EP 1781807B1), pH=7.4). From this master-mix solution, 285 μl are added per well containing the inhibitor. Increase in fluorescence is measured using λex=313 nm and λem=418 nm at 37° C. for 20 min. A slope of the increase in fluorescence between 10 and 20 min is calculated for determination of the IC50 value (inhibitor concentration at which 50% of the initial TG2 activity is blocked).
# Analysis of enzymatic activity is performed by calculation of the slope of an increase in fluorescence intensity. IC50 values are calculated by plotting the enzymatic activity (as percentage from control containing 2% DMSO instead of inhibitor) against the inhibitor concentration. IC50 is defined as the inhibitor concentration blocking 50%) of initial enzyme activity.
row,IC50 [nM],SMILES
1,200,"CNC(=O)C(=O)CC[C@H](NC(=O)c1cncn1C)C(=O)Nc1cccn(CC(=O)NCN(C)C)c1=O [Compound E55, (S)-N1-(1-(2-((dimethylamino)methylamino)-2-oxoethyl)-2-oxo-1,2-dihydropyridin-3-yl)-N6-methyl-2-(1-methyl-1H-imidazole-5-carboxamido)-5-oxohexanediamide]"
2,70,"CCC(CC)CNC(=O)Cn1cccc(NC(=O)[C@H](CCC(=O)C(=O)NC)NC(=O)c2cnco2)c1=O [Compound E62, (S)—N1-(1-(2-(2-ethylbutylamino)-2-oxoethyl)-2-oxo-1,2-dihydropyridin-3-yl)-N6-methyl-2-(oxazole-5-carboxamido)-5-oxohexanediamide]"
3,400,"CCC(CC)CNC(=O)Cn1cccc(NC(=O)[C@H](CCC(=O)C(=O)OCCOC)NC(=O)c2cncn2C)c1=O [Compound E78, (S)-2-methoxyethyl 6-(1-(2-(2-ethylbutylamino)-2-oxoethyl)-2-oxo-1,2-dihydropyridin-3-ylamino)-5-(1-methyl-1H-imidazole-5-carboxamido)-2,6-dioxohexanoate]"
4,125,"CCCCCNC(=O)C(=O)CC[C@H](NC(=O)c1cncn1C)C(=O)Nc1cccn(CC(=O)NCC(CC)CC)c1=O [Compound E18, (S)—N1-(1-(2-(2-ethylbutylamino)-2-oxoethyl)-2-oxo-1,2-dihydropyridin-3-yl)-2-(1-methyl-1H-imidazole-5-carboxamido)-5-oxo-N6-pentylnexanediamide]"
5,500,"CCC(CC)CNC(=O)Cn1cccc(NC(=O)[C@H](CCC(=O)C(=O)Nc2cncs2)NC(=O)c2cncn2C)c1=O [Compound E40, (S)—N1-(1-(2-(2-ethylbutylamino)-2-oxoethyl)-2-oxo-1,2-dihydropyridin-3-yl)-2-(1-methyl-1H-imidazole-5-carboxamido)-5-oxo-N6-(thiazol-5-yl)hexanediamide]"
6,6300,"CCC(CC)CNC(=O)Cn1cccc(NC(=O)[C@H](CCCCC(=O)C(=O)NC)NC(=O)c2cncn2C)c1=O [Compound E73, (S)—N1-(1-(2-(2-ethylbutylamino)-2-oxoethyl)-2-oxo-1,2-dihydropyridin-3-yl)-N8-methyl-2-(1-methyl-1H-imidazole-5-carboxamido)-7-oxooctanediamide]"
7,300,"CCN(CC)C(=O)Cn1cccc(NC(=O)[C@H](CCC(=O)C(=O)NC)NC(=O)c2cncn2C)c1=O [Compound E50, (S)—N1-(1-(2-(diethylamino)-2-oxoethyl)-2-oxo-1,2-dihydropyridin-3-yl)-N6-methyl-2-(1-methyl-1H-imidazole-5-carboxamido)-5-oxohexanediamide]"
8,550,"CNC(=O)C(=O)CC[C@H](NC(=O)c1cncn1C)C(=O)Nc1cccn(CC(=O)NCOC)c1=O [Compound E54, (S)—N1-(1-(2-(methoxymethylamino)-2-oxoethyl)-2-oxo-1,2-dihydropyridin-3-yl)-N6-methyl-2-(1-methyl-1H-imidazole-5-carboxamido)-5-oxohexanediamide]"
9,95,"CCC(CC)CNC(=O)Cn1cc(Br)cc(NC(=O)[C@H](CCC(=O)C(=O)NC)NC(=O)c2cncn2C)c1=O [Compound E46, (S)—N1-(5-bromo-1-(2-(2-ethylbutylamino)-2-oxoethyl)-2-oxo-1,2-dihydropyridin-3-yl)-N6-methyl-2-(1-methyl-1H-imidazole-5-carboxamido)-5-oxohexanediamide]"

# The remaining lines, values behind:
row,SMILES,IC50 [nM]
1,"CCC(CC)CNC(=O)Cn1cc(C(F)(F)F)cc(NC(=O)[C@H](CCC(=O)C(=O)NC)NC(=O)c2cncn2C)c1=O [Compound E47, (S)—N1-(1-(2-(2-ethylbutylamino)-2-oxoethyl)-2-oxo-5-(trifluoromethyl)-1,2-dihydropyridin-3-yl)-N6-methyl-2-(1-methyl-1H-imidazole-5-carboxamido)-5-oxohexanediamide]",80
2,"CCC(CC)CNC(=O)Cn1cccc(NC(=O)[C@H](CCC(=O)C(=O)NCc2ccccc2)NC(=O)c2cncn2C)c1=O [Compound E20, (S)—N1-benzyl-N6-(1-(2-(2-ethylbutylamino)-2-oxoethyl)-2-oxo-1,2-dihydropyridin-3-yl)-5-(1-methyl-1H-imidazole-5-carboxamido)-2-oxonexanediamide]",600
3,"CCC(CC)CNC(=O)Cn1cccc(NC(=O)[C@H](CCC(=O)C(=O)NC)NC(=O)C2CCN(C)CC2)c1=O [Compound E63, (S)—N1-(1-(2-(2-ethylbutylamino)-2-oxoethyl)-2-oxo-1,2-dihydropyridin-3-yl)-N6-methyl-2-(1-methylpiperidine-4-carboxamido)-5-oxohexanediamide]",80
4,"CCC(CC)CNC(=O)Cn1cccc(NC(=O)[C@H](CCC(=O)C(N)=O)NC(=O)c2ccccc2)c1=O [Compound E12, (S)-2-benzamido-N1-(1-(2-(2-ethylbutylamino)-2-oxoethyl)-2-oxo-1,2-dihydropyridin-3-yl)-5-oxonexanediamide]",950
5,"CCC(CC)CNC(=O)Cn1cccc(NC(=O)[C@H](CCC(=O)C(=O)NC)NC(=O)[C@@H]2CC(=O)CN2)c1=O [Compound E60, (S)—N1-(1-(2-(2-ethylbutylamino)-2-oxoethyl)-2-oxo-1,2-dihydropyridin-3-yl)-N6-methyl-5-oxo-2-((S)-4-oxopyrrolidine-2-carboxamido)hexanediamide]",60
6,"CCC(CC)CNC(=O)Cn1cccc(NC(=O)[C@H](CCC(=O)C(N)=O)NC(=O)c2cnccn2)c1=O [Compound E11, (S)—N1-(1-(2-(2-ethylbutylamino)-2-oxoethyl)-2-oxo-1,2-dihydropyridin-3-yl)-5-oxo-2-(pyrazine-2-carboxamido)hexanediamide]",450
7,"CCC(CC)CNC(=O)Cn1cccc(NC(=O)[C@H](CCC(=O)C(N)=O)NS(=O)(=O)c2cccc3c(N(C)C)cccc23)c1=O [Compound E15, (S)-2-(5-(dimethylamino)naphthalene-1-sulfonamido)-N1-(1-(2-(2-ethylbutylamino)-2-oxoethyl)-2-oxo-1,2-dihydropyridin-3-yl)-5-oxonexanediamide]",6000
8,"CCC(CC)CNC(=O)Cn1cccc(NC(=O)[C@H](CCC(=O)C(=O)NC)NC(=O)c2ccoc2)c1=O [Compound E61, (S)—N1-(1-(2-(2-ethylbutylamino)-2-oxoethyl)-2-oxo-1,2-dihydropyridin-3-yl)-2-(furan-3-carboxamido)-N6-methyl-5-oxohexanediamide]",80
9,"CCC(CC)CNC(=O)Cn1cccc(NC(=O)[C@H](CCC(=O)C(=O)NC)NS(=O)(=O)c2sc(C)nc2C)c1=O [Compound E66, (S)-2-(2,4-dimethylthiazole-5-sulfonamido)-N1-(1-(2-(2-ethylbutylamino)-2-oxoethyl)-26 oxo-1,2-dihydropyridin-3-yl)-N6-methyl-5-oxohexanediamide]",120
10,"CNC(=O)C(=O)CC[C@H](NC(=O)Cc1cc(C)nn1C)C(=O)Nc1cccc(C(=O)N[C@@H](Cc2ccc(-c3ccccc3)cc2)C(=O)N2C[C@H](Oc3ccccc3)C[C@H]2C(N)=O)c1 [Compound E83, (S)—N1-(3-((S)-3-(biphenyl-4-yl)-1-((2S,4R)-2-carbamoyl-4-phenoxypyrrolidin-1-yl)-1-oxopropan-2-ylcarbamoyl)phenyl)-2-(2-(1,3-dimethyl-1H-pyrazol-5-yl)acetamido)-N6-methyl-5-oxohexanediamide]",2000
11,"CCC(CC)CNC(=O)Cn1cccc(NC(=O)[C@H](CCC(=O)C(=O)NCS(=O)(=O)c2ccc(C)cc2)NC(=O)c2cncn2C)c1=O [Compound E41, (S)—N1-(1-(2-(2-ethylbutylamino)-2-oxoethyl)-2-oxo-1,2-dihydropyridin-3-yl)-2-(1-methyl-1H-imidazole-5-carboxamido)-5-oxo-N6-(tosylmethyl)hexanediamide]",1450
